Measured values from US6582907B1, “Use of fluorescence correlation spectroscopy to identify compounds that bind to target species under isothermal denaturing conditions” (Pharmacia & Upjohn Company, priority 1999, dated 2003).

Target: T1, HIV-1 protease (Human immunodeficiency virus type 1 group M subtype B, UniProt P04585)
T1 construct: The enzyme HIV-1 protease exists as a dimer
Assay: Isothermal denaturation of Oregon Green-labelled HIV-1 protease monitored by fluorescence correlation spectroscopy (FCS)
Type: binding
Description: HIV-1 Protease. HIV-1 Protease was extensively dialyzed against 0.1 M sodium phosphate, 0.05% NaN3, pH 6.5, at 5° C., using a Pierce Slide-A-Lyzer™ (2,000 MWCO). The protease concentration was approximately 1 mg/mL. There was a slight turbidity after dialysis. Protease recovery was assumed to be 100% (53 nanomoles in 1.1 mL).
A freshly prepared solution of Oregon Green™ Iodoacetamide (Molecular Probes Inc., Cat. No. O-6010; approximately 10 mM in DMSO) was added at zero and 5 hours of incubation to achieve at each time a 3-fold molar ratio of Oregon Green™ to protease. At approximately 8 hours another addition of a 4-fold molar excess was made. After each addition the solution was gently but thoroughly mixed. Incubations were without agitation at 5° C. and continued for 16 hours after the last addition.
The resulting clear solution was chromatographed over a Bio-Gel P-6 Desalting Gel™ column (0.9 cm×25 cm) using 50% volume/volume (v/v) glacial acetic acid/distilled-water as the eluant. […]
The solution of conjugated protease was 0.2 micron filtered and evaluated for Oregon Green™ concentration by extinction and for protease concentration by amino acid analysis. Spectrophotometric results determined an Oregon Green™ concentration of 1.94 μM. […]
Microfuge tubes containing 1.5 mL buffer were placed in a pre-equilibrated 48° C. water bath and the temperature was monitored with a telethermometer. […]
This material was diluted to 10 nM in a 2.0 mL teflon chamber already located on the microscope stage containing the same buffer at room temperature. […] Binning combines the fluorescence measurements from contiguous time-periods. […]
The autocorrelated data were analyzed with a nonlinear least squares (NLLSF) fitting program based on that disclosed in Yamaoka et. al., J. Pharmacobio Dyn., 4, 8-15 (1981). […]
In these experiments, since both native and denatured proteins exist, the calculated results represent an average value for the amount of material in the two states. […] The data were analyzed with weighting values of either zero or single inverse weighting. […]

[1] = HIV-1 protease incubated with compound at 48° C. for 24 minutes, single inverse weighting, FIG. 8B

Q: `CCC[C@@]1(CCc2ccccc2)CC(O)=C([C@H](CC)c2cccc(NS(=O)(=O)c3ccc(C(F)(F)F)cn3)c2)C(=O)O1` [PNU-140690] was tested. Which “stabilization of HIV-1 protease against isothermal denaturation (change in apparent diffusion coefficient as a function of time)” value (48° C., time points 0 to 60 minutes, with vs without compound, FIG. 9) did it give?
A: Its value is “clearly stabilizes the enzyme”.

Q: And the “G(0) (unimolecular model, autocorrelation curve)” value [1]?
A: Its value is 292×10^−3±11.7×10^−3.

Q: And the “diffusion coefficient (unimolecular model, autocorrelation curve)” value [1]?
A: Its value is 1.33×10^−6±0.09×10^−6.
